Experimental data as given in patent US9492462B2, “Composition for elastin production” (HUMAN MATRIX SCIENCES, LLC, priority 2007, dated 2016).

Legend:
Type in all cases: cell-based, human
[1] = test system: normal skin fibroblasts; assay: Elastin immunostaining in 7-day cultures of normal skin fibroblasts
Description: (§1) Biological effects of aldosterone and spironolactone were tested in cultures of dermal fibroblasts derived from normal skin, stretch-marked skin and dermal scars derived from Caucasian females, of different ages ranging from 30-38 years old. All fibroblasts were originally isolated by allowing them to migrate out of skin explants and then passaged by trypsinization and maintained in alpha-minimum essential medium supplemented with 20 mM Hepes, 1% antibiotics and antimycotics, 1% L-Glutamate and 2% fetal bovine serum (FBS) as previously described Hinek et al. “Impaired elastic-fiber assembly by fibroblasts from patients with either Morquio B disease or infantile GM1-gangliosidosis is linked to deficiency in the 67-kD spliced variant of beta-galactosidase.” Am J Hum Genet. 2000 July; 67(1):23-36 hereby incorporated by reference in its entirety. In all experiments, consecutive passages 3-4 were tested. Cells were densely plated (50×10^5 cells/dish) to reach confluency and then cultured for 7 days in the presence and absence of different concentrations of (10 nM-1 μM) aldosterone, 2 μM spironolactone, alone or in combinations with other reagents, as described in figure legends.
7-day-old cultures of fibroblasts, which produce abundant ECM, were assessed. All cultures were fixed in cold 100% methanol at −20° C. for 30 min, and then incubated for 1 hour with 2 μg/ml of polyclonal antibody to tropoelastin. Cultures were then incubated for an additional hour with appropriate fluorescein-conjugated secondary antibody (GAR-FITC). Nuclei were counterstained with propidium iodide. Morphometric analysis of five separate cultures in each experimental group, immunostained with antibodies recognizing extracellular matrix components, was performed using a computerized video analysis system (Image-Pro Plus software 3.0, Media Cybernetics, Silver Spring, Md.) as described previously in Hinek et al. “Decreased elastin deposition and high proliferation of fibroblasts from Costello syndrome are related to functional deficiency in the 67-kD elastin-binding protein.” Am J Hum Genet. 2000 March; 66(3):859-72 and Hinek and Wilson, “Impaired elastogenesis in Hurler disease: dermatan sulfate accumulation linked to deficiency in elastin-binding protein and elastic fiber assembly.” Am J Pathol. 2000 March; 156(3):925-38 both of which are hereby incorporated by reference in their entireties.

[2] = test system: fibroblasts derived from dermal scar tissue; assay: Elastin immunostaining in 7-day cultures of dermal scar fibroblasts
Description: as §1
7-day-old cultures of fibroblasts, which produce abundant ECM, were assessed. All cultures were fixed in cold 100% methanol at −20° C. for 30 min, and then incubated for 1 hour with 2 μg/ml of polyclonal antibody to tropoelastin. Cultures were then incubated for an additional hour with appropriate fluorescein-conjugated secondary antibody (GAR-FITC). Nuclei were counterstained with propidium iodide. Morphometric analysis of five separate cultures in each experimental group, immunostained with antibodies recognizing extracellular matrix components, was performed using a computerized video analysis system (Image-Pro Plus software 3.0, Media Cybernetics, Silver Spring, Md.) as described previously in Hinek et al. “Decreased elastin deposition and high proliferation of fibroblasts from Costello syndrome are related to functional deficiency in the 67-kD elastin-binding protein.” Am J Hum Genet. […]

[3] = test system: normal skin fibroblasts; assay: [3H]-valine incorporation into insoluble elastin, normal skin fibroblasts
Description: as §1
Quintuplicate, 4 day-old cultures of dermal fibroblasts maintained in the presence and absence of indicated reagents were additionally exposed for the 3 following days to 20 μCi [^3H]-valine. At the end of incubation period, the cell layers were extensively washed with PBS, scraped and boiled in 500 μl of 0.1 N NaOH for 30 minutes, to solubilize all matrix components except elastin. The resulting pellets containing the insoluble elastin were then solubilized by boiling in 200 μl of 5.7 N HCl for 1 hour, and the aliquots were mixed in scintillation fluid and counted. Aliquots taken from each culture were also used for DNA determination, according to Rodems et al., using the DNeasy Tissue System from Qiagen. Final results reflecting amounts of metabolically labeled insoluble elastin in individual cultures were normalized per their DNA content, and expressed as CPM/1 μg DNA.

[4] = test system: fibroblasts derived from dermal scar tissue; assay: [3H]-valine incorporation into insoluble elastin, dermal scar fibroblasts; conditions: 10 and 100 ng/ml IGF-I vs untreated control
Description: Biological effects of aldosterone and spironolactone were tested in cultures of dermal fibroblasts derived from normal skin, stretch-marked skin and dermal scars derived from Caucasian females, of different ages ranging from 30-38 years old. All fibroblasts were originally isolated by allowing them to migrate out of skin explants and then passaged by trypsinization and maintained in alpha-minimum essential medium supplemented with 20 mM Hepes, 1% antibiotics and antimycotics, 1% L-Glutamate and 2% fetal bovine serum (FBS) as previously described Hinek et al. “Impaired elastic-fiber assembly by fibroblasts from patients with either Morquio B disease or infantile GM1-gangliosidosis is linked to deficiency in the 67-kD spliced variant of beta-galactosidase.” Am J Hum Genet. 2000 July; 67(1):23-36 hereby incorporated by reference in its entirety. […]
Quintuplicate, 4 day-old cultures of dermal fibroblasts maintained in the presence and absence of indicated reagents were additionally exposed for the 3 following days to 20 μCi [^3H]-valine. […] The resulting pellets containing the insoluble elastin were then solubilized by boiling in 200 μl of 5.7 N HCl for 1 hour, and the aliquots were mixed in scintillation fluid and counted. […] Final results reflecting amounts of metabolically labeled insoluble elastin in individual cultures were normalized per their DNA content, and expressed as CPM/1 μg DNA.

[5] = test system: skin biopsy explants derived from abdominal dermal scar; assay: Organ culture of dermal scar explants, Movat's pentachrome stain; conditions: 5 μM AG1024 alone, with 50 nM aldosterone, or with aldosterone and 2 μM spironolactone
Description: In order to further test whether aldosterone and spironolactone would penetrate into skin tissue and affect elastogenesis, fragments of normal skin, stretch-marked skin and dermal scars were tested in organ culture system. Skin fragments were cut into multiple 1 mm^2 pieces and placed on top of metal grids immersed in culture medium containing 5% FBS and maintained for 10 days in the presence and absence of and then cultured for 7 days in the presence of 50 nM aldosterone, and 2 μM spironolactone, alone or in combinations, as described in figure legends. The media were changed every second day.
All organ cultures were fixed in 1% buffered formalin and their transversal serial histological sections were stained with Movat's pentachrome as previously described in Hinek et al. “Proteolytic digest derived from bovine Ligamentum Nuchae stimulates deposition of new elastin-enriched matrix in cultures and transplants of human dermal fibroblasts” J Dermatol Sci. September 2005; 39(3):155-66 hereby incorporated by reference in it's entirety. Morphometric analysis was performed as described above. In each analyzed group (three explants from each patient) low-power fields (1 mm^2) of 20 serial sections stained with Movat's pentachrome were analyzed and all structures stained black (elastic fibers) were counted.

CC(=O)S[C@@H]1CC2=CC(=O)CC[C@]2(C)[C@H]2CC[C@@]3(C)[C@@H](CC[C@@]34CCC(=O)O4)[C@H]12 [spironolactone]
elastin deposition in cells treated with increasing concentrations of aldosterone ([1]; 2 μM spironolactone added to 10 nM, 50 nM, 1 μM aldosterone, 7-day cultures): did not alter elastin deposition

IGF-I: ligand of insulin growth factor receptor I, added at 10-100 ng/ml
deposition of elastin (anti-elastin immunostaining) ([1]; 7-day cultures, 50 ng/ml IGF-I, 50 nM aldosterone, alone or together, vs untreated control): enhances the deposition of elastin
elastin deposition (anti-elastin immunostaining) ([2]; 10 ng/ml IGF-I vs untreated control): increase in elastin depositions
elastin deposition (anti-elastin immunostaining) ([2]; 100 ng/ml IGF-I vs untreated control): even greater elastin deposition
mature, insoluble elastin concentration ([3H]-valine incorporation) ([3]; 50 ng/ml IGF-I, 50 nM aldosterone, alone or in combination): improved mature elastin concentrations over untreated control
deposition of mature, insoluble elastin ([3H]-valine incorporation) [4]: dose dependent increase

CC(C)(C)c1cc(C=C(C#N)C#N)cc(Br)c1O [AG1024]
effect on aldosterone-enhanced deposition of elastin (immunostaining) ([1]; 50 nM aldosterone with 1 μg/ml αIGF-IR or 5 μM AG1024): inhibited
effect on IGF-I-enhanced deposition of elastin (immunostaining) ([1]; 50 ng/ml IGF-I with 1 μg/ml αIGF-IR or 5 μM AG1024): inhibited
elastin deposition in AG1024-treated explants (Movat's pentachrome) [5]: no net increase in elastin deposition
mature elastin concentration in the presence of IGF-I or aldosterone ([3H]-valine incorporation) ([3]; 1 μg/ml αIGF-IR or 5 μM AG1024 with 50 ng/ml IGF-I or 50 nM aldosterone): maintained at or below control levels
